Source: patent US20250281496A1, “METHODS OF TREATING NEUROPATHY USING FORETINIB AND COMPOSITIONS THEREOF” (INDIANA UNIVERSITY RESEARCH AND TECHNOLOGY CORPORATION, priority 2022, published 2025)

Columns and labels:
[1] = system: experimental diabetic neuropathy; assay: Three-dimensional assessment of cutaneous innervation (volumetric nerve fiber density) in STZ-diabetic mice; assay type: in vivo; conditions: 30 mg/kg oral daily; 5 weeks post-STZ; non-treated 44.9%, vehicle 37.8%
Protocol: In total, 20 mice were injected with 100 mg/kg bodyweight of streptozotocin (STZ, […], Sigma Aldrich) in 0.1M citrate buffer (pH 4.5) on two consecutive days respectively, to induce diabetes type 1^27. Prior to the first injection and in weekly intervals thereafter, all animals were weighted and underwent tail prick blood sugar measurements using a clinical grade monitoring system (Contour One, Ascensia Diabetes Care, Mississauga, Ontario) as previously described. Mice were considered diabetic when blood glucose was at least 15 mmol/L (270 mg/dl). Prior to diabetes induction the mice were block randomized into experimental groups (n=10 Foretinib treatment, n=5 vehicle treatment, n=5 non-treated diabetic control). An additional 5 non-diabetic animals served as a healthy control. Foretinib treatments started 1-week post-diabetes induction. Foretinib was prepared fresh daily by dissolving 6 mg Foretinib in 1 ml of 1% (Hydroxypropyl)-methyl cellulose (09963, Sigma Aldrich) and 0.2% sodium dodecyl sulfate ([…], Sigma Aldrich) in sterile H2O. […] Cutaneous nerve fibers were semiautomatically traced using batch processing with consistent fluorescence intensity thresholds across the entire data set. Volumetric nerve fiber density was determined as total nerve fiber volume per skin tissue volume for an 830×830×200 μm region of interest.

[2] = Potential side effects and body weight under daily oral Foretinib in STZ-diabetic mice; assay type: in vivo
Protocol: The primary objective of these experiments was to determine the effect of oral Foretinib on cutaneous innervation density in an experimental diabetic neuropathy. The numbers of animals needed for these experiments were determined by power analysis based on preliminary experiments assessing the cutaneous innervation density in diabetic and non-diabetic mice. A 50% increased nerve fiber density compared to the diabetic control was considered scientifically relevant, requiring a minimum of n=5 animals per group to achieve a power of 0.9 when assuming a standard deviation (SD) of 0.01 for all groups (normally distributed, two-sided). Animals were randomly allocated to experimental groups prior to induction of diabetes and the investigators were blinded during outcome assessments. Two experimental animals allocated to the Foretinib treated group were excluded from the experiment after not responding to the STZ injections. No outliers were excluded from the analysis. After five weeks, the experiment was terminated because 4 of 8 animals reached a predefined humane endpoint of greater than 15% weight loss compared to their pre-diabetic weight. The scheduled experimental endpoint was 12 weeks post-STZ injection. […]

[3] = mouse, in vivo, ip, 20 days
Protocol: A) Quantitative representation of changes in mouse body weight in dependence of the indicated IP daily doses of Foretinib (n=2 per dose). B) Changes in mouse blood plasma concentration of 5 mg/kg IP injected Foretinib during 48 hours after a single injection (n=3).
It is expected that Foretinib will protect against the diabetes-induced loss of terminal axons and ensheathing SC. In our previous study, 30 mg/kg of foretinib was administered via daily gavage for a course of 5 weeks. Although reported as non-toxic, at this dose the drug, along with a strong neuroprotective effect, caused lethargic behavior, ruffled fur and weight loss requiring early termination of the experiment. Due to the substantial prevalence of type 2 diabetes, we will examine the effect of foretinib treatment on type 2 diabetic mice (db/db). To define the maximal tolerable dose, we treated wt mice by daily intraperitoneal (IP) injection of several various dosages of foretinib for 20 days, while assessing the mice weight and behavior. […] Next, to define the pharmacokinetic (PK) characteristics of the drug, we performed a mass spectrometry analysis of blood samples from wt mice treated with 5 mg/kg (n=3 mice per dose per time point). We observed that IP injection of 5 mg/kg of foretinib generated nearly 100 ng/ml blood concentration during first 4 hours, declining by 4 ng/ml/hour (FIG. 7B).

## COc1cc2c(Oc3ccc(NC(=O)C4(C(=O)Nc5ccc(F)cc5)CC4)cc3F)ccnc2cc1OCCCN1CCOCC1 [Foretinib, N1-[3-Fluoro-4-({6-methoxy-7-[3-(morpholin-4-yl)propoxy]quinolin-4-yl}oxy)phenyl]-N′1-(4-fluorophenyl)cyclopropane-1,1-dicarboxamide]
[1]
  cutaneous nerve fiber density as % of non-diabetic reference: 67.3%
[2]; 30 mg/kg oral daily, 5 weeks post-injection, group mean
  relative body weight change versus pre-diabetic weight: < −15%
[2]; 30 mg/kg orally via daily gavage, after four weeks of daily treatment
  signs of increased distress: lethargic behavior, ruffled fur, and weight loss
[3]
  maximal tolerable dose not affecting behavior and body weight: 5 mg/kg
